Entries after “also recorded” stand apart in the source; their conditions may differ. Like-named read-outs stand apart in the source and are kept apart here.
Tests used:
B. anthracis (Sterne) = system: B. anthracis (Sterne); parameters: species or system Bacillus anthracis; settings: in vivo
[1] = system: hemorrhagic activity of B. anthracis culture supernatant (BACS); parameters: species or system B. anthracis (delta Ames); settings: in vivo, sc
[2] = system: BACS proteolytic activity; format: biochemical, B. anthracis
[3] = mouse, in vivo

Molecule: CC[C@@H](C)[C@@H](O)[C@H](C)C(=O)[C@H](C)/C=C(\C)C[C@H](C)[C@@H]1OC(=O)[C@H]1CC [ebelactone B]
- effect on survival / protection (B. anthracis (Sterne)): did not increase survival over the effects of doxycycline alone

Molecule: CC(C)C[C@H](NP(=O)(O)O[C@@H]1O[C@@H](C)[C@H](O)[C@@H](O)[C@H]1O)C(=O)N[C@@H](Cc1c[nH]c2ccccc12)C(=O)O [phosphoramidon]
- suppression of hemorrhagic effect of BACS [1]: effective; also recorded: effectively abrogated
- inhibition of hydrolysis of gelatin and casein by BACS [2]: inhibited

Molecule: C[C@H]1c2cccc(O)c2C(=O)C2=C(O)[C@]3(O)C(=O)C(C(N)=O)=C(O)[C@@H](N(C)C)[C@@H]3[C@@H](O)[C@@H]21 [doxycycline]
- survival (B. anthracis (Sterne); ip): 30%

Molecule: O=C(O)CN(CCN(CC(=O)O)CC(=O)O)CC(=O)O [EDTA, ethylenediaminetetraacetic acid]
- suppression of hemorrhagic effect of BACS [1]: effectively abrogated

Molecule: O=C(O)c1cn(C2CC2)c2cc(N3CCNCC3)c(F)cc2c1=O [ciprofloxacin]
- effectiveness of treatment (B. anthracis (Sterne)): ineffective
- survival (B. anthracis (Sterne)): 20%
- survival (effectiveness) (B. anthracis (Sterne)): 70%
- survival (B. anthracis (Sterne); ip): 20%

Molecule: c1cnc2c(c1)ccc1cccnc12 [phenanthroline, 1,10-phenanthroline]
- inhibition of hydrolysis of gelatin and casein by BACS [2]: inhibited

B1: thermolysin: thermolysin (EC 3.4.24.27) from Bacillus thermoproteolyticus (protein, UniProt P00800 233-548, looked up)
Thermolysin: ITGTSTVGVGRGVLGDQKNINTTYSTYYYLQDNTRGNGIFTYDAKYRTTLPGSLWADADNQFFASYDAPAVDAHYYAGVTYDYYKNVHNRLSYDGNNAAIRSSVHYSQGYNNAFWNGSQMVYGDGDGQTFIPLSGGIDVVAHELTHAVTDYTAGLIYQNESGAINEAISDIFGTLVEFYANKNPDWEIGEDVYTPGISGDSLRSMSDPAKYGDPDHYSKRYTGTQDNGGVHINSGIINKAAYLISQGGTHYGVSVVGIGRDKLGKIFYRALTQYLTPTSNFSQLRAAAVQSATDLYGSTSQEVASVKQAFDAVGVK
- dose range in which hemorrhagic activity was detectable [3]: 10 to 100 µg

B2: SBTI (protein, UniProt P01070 25-205, looked up)
Trypsin inhibitor A: DFVLDNEGNPLENGGTYYILSDITAFGGIRAAPTGNERCPLTVVQSRNELDKGIGTIISSPYRIRFIAEGHPLSLKFDSFAVIMLCVGIPTEWSVVEDLPEGPAVKIGENKDAMDGWFRLERVSDDEFNNYKLVFCPQQAEDDKCGDIGISIDHDDGTRRLVVSKNKPLVVQFQKLDKESL
- suppression of hemorrhagic effect of BACS [1]: effectively abrogated

From US20070231334A1 (priority 2004, published 2007)
